Results: PMC6048268, “Resveratrol Inhibits Key Steps of Steroid Metabolism in a Human Estrogen-Receptor Positive Breast Cancer Model: Impact on Cellular Proliferation” (Frontiers in Pharmacology, 2018)
Where “and” joins values, the source holds several entries; their conditions need not be identical. Identical values can stand only once. Like-named read-outs stand apart in the source and are kept apart here.

Assays:
[1] = test system: MCF-7 cells; details: for Vmax: MCF-7, precursor DHEA or E1 0–100 nM, Michaelis–Menten
Procedure: (§1) Briefly, cartridges were preconditioned with 2 × 1.0 ml acetonitrile and 3 × 1.0 ml ammonium acetate buffer (10 mM, pH = 5.0), and the samples were loaded onto the columns. After washing with 1 × 1.0 ml ammonium acetate buffer (10 mM, pH = 5.0) and 2 × 1.0 ml acetonitrile/ammonium acetate buffer (10 mM, pH 5.0) 10:90 (v/v), the analytes were eluted using 2 × 650 μl acetonitrile/ammonium acetate buffer (10 mM, pH = 5.0) 95:5 (v/v) and evaporated until dry. Subsequently, samples were reconstituted in 270 μl acetonitrile/ammonium acetate buffer (10 mM, pH = 5.0) 25:75 (v/v) and stored at -80°C until further LC–HRMS analysis.
(§2) After media collection, cell monolayers were washed five times with 2.0 ml DPBS, detached using 400 μl TrypLE® solution (37°C, 5 min), mixed with 600 μl DPBS and transferred into sample vials. Aliquots of these suspensions (100 μl each) were diluted and counted using the Casy® TT Cell Counter to determine the exact number of cells per sample well. The remaining cell suspensions (900 μl each) were gently centrifuged (1000 rpm, 8 min), and the supernatants were discarded. The cell pellets were subsequently resuspended in 100 μl aqueous ammonium acetate buffer (10 mM, pH = 5.0) and lysed by five freeze-thaw-cycles in liquid nitrogen (3 min each), followed by thawing at ambient temperature. Ammonium acetate buffer (1000 μl) was added, and the suspensions were centrifuged (14000 rpm, 5 min). Subsequently, the supernatants were concentrated using the same SPE protocol as described above. All processed samples were then stored at -80°C until further LC–HRMS analysis. For each condition, three biologically independent experiments were performed; the reported values represent the overall means ± SD of all values.
(§3) LC was performed with an UltiMate 3000 RSLC-series system coupled to a maXis HD ESI-Qq-TOF mass spectrometer (Bruker Corporation, Bremen, Germany). A Phenomenex Luna® 3 μm C18(2) 100 Å LC column (250 mm × 4.6 mm I.D.; Phenomenex, Inc., Torrance, CA, United States), preceded by a Hypersil® BDS-C18 guard column (5 μm, 10 mm × 4.6 mm I.D.; Thermo Fisher Scientific, Inc.) was used for the separation of the analytes at a flow rate of 1.0 ml/min and a temperature of 43°C. […] The ESI ion source settings were as follows: capillary voltage: -4.5 kV; dry gas flow rate: 8.0 l/min N2; nebulizer: 1.0 bar N2; and dry temperature: 200°C. The ion transfer parameters were set to 400 Vpp funnel RF and 300 Vpp multipole RF, the quadrupole ion energy was 8.0 eV, and the collision cell parameters were as follows: collision RF, 1100 Vpp; collision energy, 10.0 eV; transfer time, 38 μs; and pre-pulse storage, 18 μs. In the range of m/z 150–500, full-scan mass spectra were recorded.
(§4) The modes of inhibition were subsequently determined from Lineweaver–Burk plots, and the corresponding Ki values were calculated from Dixon plots using GraphPad Prism 6.0.

[2] = test system: MDA-MB-231 cells; details: for Km / Vmax: MDA-MB-231, precursor DHEA or E1 0–100 nM, Michaelis–Menten
Procedure: as §1, §2, §3, §4

[3] = test system: steroid metabolism in MCF-7 cells; assay: Inhibition of steroid metabolism by RES in MCF-7 cells (LC–HRMS)
Procedure: as §1, §2, §3, §4

[4] = test system: MDA-MB-231 cells; assay: Metabolism of RES in MDA-MB-231 cells (HPLC); details: RES 0–100 μM, 48 h
Procedure: After 48 h, the cellular media (100 μl) were mixed with 200 μl ice-cold (-20°C) methanol and subsequently centrifuged (14000 rpm, 5 min). The clear supernatants were then diluted 1:1 with aqueous ammonium acetate buffer (5 mM, pH = 7.4), and 80 μl of the samples were injected onto the HPLC column. […] Calibration of the chromatogram was accomplished using the external standard method.
as §4

C[C@]12CC[C@@H]3c4ccc(O[C@@H]5O[C@H](C(=O)O)[C@@H](O)[C@H](O)[C@H]5O)cc4CC[C@H]3[C@@H]1CC[C@@H]2O [E2-G, 17β-estradiol-3-O-(β-D-glucuronide)] was tested, and the Vmax ([1]; 48 h) was 7.29 ± 1.36 fmol/10^6 cells/h and 7.29 ± 1.36^∗ fmol/10^6 cells/h, the formation rate ([1]; human, 48 h, 100 nM) was 3.23 ± 0.45 fmol/10^6 cells/h and the Km ([2]; 48 h) was 0.0879 ± 0.0322 µM. For the same compound, the Vmax ([2]; 48 h) was 0.33 ± 0.07 fmol/10^6 cells/h, the formation rate ([2]; human, 48 h, 100 nM) was 0.18 ± 0.02 fmol/10^6 cells/h and the Km ([3]; MCF-7, 0 μM RES) was 0.123 ± 0.0084 µM. The Vmax ([3]; MCF-7, 0 μM RES) was 7.29 ± 0.36 fmol/10^6 cells/h, the Km ([3]; MCF-7, 5 μM RES) was 0.135 ± 0.0059 µM and the Vmax ([3]; MCF-7, 5 μM RES) was 7.00 ± 0.20 fmol/10^6 cells/h. The Km ([3]; MCF-7, 10 μM RES) was 0.136 ± 0.006 µM, the Vmax ([3]; MCF-7, 10 μM RES) was 4.98 ± 0.14^∗ fmol/10^6 cells/h and the Km ([3]; MCF-7, 25 μM RES) was 0.132 ± 0.008 µM. The Vmax ([3]; MCF-7, 25 μM RES) was 2.60 ± 0.12^∗ fmol/10^6 cells/h, the Km ([3]; MCF-7, 50 μM RES) was 0.126 ± 0.0132 µM and the Vmax ([3]; MCF-7, 50 μM RES) was 1.51 ± 0.11^∗ fmol/10^6 cells/h. For the same compound, the Km ([3]; MCF-7, 100 μM RES) was 0.132 ± 0.0039 µM and the Vmax ([3]; MCF-7, 100 μM RES) was 0.77 ± 0.02^∗ fmol/10^6 cells/h.
For C[C@]12CC[C@@H]3c4ccc(OS(=O)(=O)O)cc4CC[C@H]3[C@@H]1CC[C@@H]2O [E2-S, 17β-estradiol-3-O-sulfate], the formation rate ([1]; MCF-7, 100 nM E1, 48 h) was 11.8 ± 0.8 fmol/10^6 cells/h, the Vmax ([1]; 48 h) was 24.7 ± 4.9 fmol/10^6 cells/h and 24.7 ± 4.9^∗ fmol/10^6 cells/h and the formation rate ([2]; MDA-MB-231, 100 nM E1, 48 h) was 0.12 ± 0.02 fmol/10^6 cells/h. The Km ([2]; 48 h) was 0.038 ± 0.0136 µM, the Vmax ([2]; 48 h) was 0.16 ± 0.02 fmol/10^6 cells/h and the Km ([3]; MCF-7, 0 μM RES) was 0.104 ± 0.0155 µM. For the same compound, the Vmax ([3]; MCF-7, 0 μM RES) was 24.7 ± 4.9 fmol/10^6 cells/h, the Km ([3]; MCF-7, 5 μM RES) was 0.106 ± 0.0159 µM and the Vmax ([3]; MCF-7, 5 μM RES) was 6.64 ± 0.58^∗ fmol/10^6 cells/h. The Km ([3]; MCF-7, 10 μM RES) was 0.0993 ± 0.0128 µM, the Vmax ([3]; MCF-7, 10 μM RES) was 2.34 ± 0.19^∗ fmol/10^6 cells/h and the Km ([3]; MCF-7, 25 μM RES) was 0.0949 ± 0.0147 µM. The Vmax ([3]; MCF-7, 25 μM RES) was 1.01 ± 0.10^∗ fmol/10^6 cells/h, the Km ([3]; MCF-7, 50 μM RES) was 0.101 ± 0.0112 µM and the Vmax ([3]; MCF-7, 50 μM RES) was 0.56 ± 0.01^∗ fmol/10^6 cells/h. For the same compound, the Km ([3]; MCF-7, 100 μM RES) was 0.0997 ± 0.006 µM and the Vmax ([3]; MCF-7, 100 μM RES) was 0.27 ± 0.01^∗ fmol/10^6 cells/h.
In the case of C[C@]12CC[C@@H]3c4ccc(O)cc4CC[C@H]3[C@@H]1C[C@@H](O)[C@@H]2O [E3, 16α-hydroxy-17β-estradiol], the formation rate ([1]; MCF-7, 100 nM E1, 48 h) is reported as 0.57 ± 0.06 fmol/10^6 cells/h and the formation rate ([2]; MDA-MB-231, 100 nM E1, 48 h) is reported as “below the LLOQ”.
O=S(=O)(O)Oc1ccc(/C=C/c2cc(O)cc(OS(=O)(=O)O)c2)cc1 [RES-DS, trans-resveratrol-3-O-4′-O-disulfate] was tested, and the “formation of RES metabolite” value [4] was “below the detection limit”.
In the case of C[C@]12CC[C@H]3[C@@H](CCC4=CC(=O)CC[C@@]43C)[C@@H]1CC[C@@H]2O [T, testosterone], the mean formation rate ([1]; MCF-7, 100 nM DHEA, 48 h) is reported as 4.78 ± 0.38 fmol/10^6 cells/h, the Vmax ([1]; 48 h) is reported as 9.96 ± 1.42^∗ fmol/10^6 cells/h and the mean formation rate ([2]; MDA-MB-231, 100 nM DHEA, 48 h) is reported as 57.1 ± 6.2 fmol/10^6 cells/h. The Km ([2]; 48 h) was 0.0563 ± 0.0214 µM, the Vmax ([2]; 48 h) was 91.2 ± 15.9 fmol/10^6 cells/h and the Km ([3]; MCF-7, 0 μM RES) was 0.107 ± 0.0063 µM. The Vmax ([3]; MCF-7, 0 μM RES) was 9.95 ± 0.42 fmol/10^6 cells/h, the “formation rate in the presence of RES” value ([3]; MCF-7, 100 nM DHEA + 100 μM RES, 48 h) was 19.4 ± 1.6 fmol/10^6 cells/h and the Km ([3]; MCF-7, 5 μM RES) was 0.107 ± 0.0059 µM. The Km ([3]; MCF-7, 10 μM RES) was 0.107 ± 0.0038 µM, the Vmax ([3]; MCF-7, 10 μM RES) was 18.4 ± 0.7^∗ fmol/10^6 cells/h and the Km ([3]; MCF-7, 25 μM RES) was 0.106 ± 0.0024 µM. For the same compound, the Vmax ([3]; MCF-7, 25 μM RES) was 26.7 ± 0.4^∗ fmol/10^6 cells/h, the Km ([3]; MCF-7, 50 μM RES) was 0.106 ± 0.004 µM and the Vmax ([3]; MCF-7, 50 μM RES) was 35.9 ± 0.8^∗ fmol/10^6 cells/h. The Km ([3]; MCF-7, 100 μM RES) was 0.103 ± 0.0048 µM and the Vmax ([3]; MCF-7, 100 μM RES) was 39.7 ± 1.1^∗ fmol/10^6 cells/h.
